Measured values as given in patent US11510980B2, “Brartemicin analogues” (VICTORIA LINK LTD, priority 2017, dated 2022).

Assays:
[1] = target: T1, hMincle-Ig (Homo sapiens, UniProt Q9ULY5); test: In vitro Mincle binding assay (ELISA) with hMincle-Ig fusion protein; conditions: plate-coated ligand 0.1 nmol/well
T1 construct: using soluble Mincle-Ig fusion-proteins; made in house
T1 sequence (Q9ULY5 41-219 limits assumed): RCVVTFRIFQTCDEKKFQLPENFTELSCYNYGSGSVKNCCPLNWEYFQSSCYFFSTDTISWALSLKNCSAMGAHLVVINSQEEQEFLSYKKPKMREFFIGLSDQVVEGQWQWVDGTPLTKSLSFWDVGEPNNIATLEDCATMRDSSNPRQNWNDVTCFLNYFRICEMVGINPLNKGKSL
Protocol: (§1) Preparation of ligand-coated plates: Brartemicin analogues 9a-9i, TDM (Carbosynth, Sigma Aldrich), and TDB^14 were dissolved in CHCl3:MeOH (2:1, 1 mM), diluted in isopropanol ([…]) and added to 96-well plates (20 μL/well). The solvents were evaporated and the coated plates were used immediately.
(§2) In vitro Mincle binding assay: The preparation of mMincle- and hMincle-Ig fusion proteins have been previously described. Plate-coated glycolipids 9a-i, TDB, and TDM were incubated with hMincle-Ig, mMincle-Ig, or hIgG1-Fc (Ig) [3 μg/mL in binding buffer (20 mM Tris-HCl, 150 mM NaCl, 1 mM CaCl2), 2 mM MgCl2, pH 7.0)]. Detection of bound protein was achieved via incubation with anti-hIgG-HRP followed by the addition of a colorimetric substrate and measurement of OD at 450 nm. Background was accounted for by subtracting the hIgG1-Fc OD450 values from fusion protein OD450 values
(§3) The synthesised brartemicin analogues prepared in Example 1 were first tested for their ability to bind to both human and murine Mincle in an enzyme-linked immunosorbent assay (ELISA) using soluble Mincle-Ig fusion-proteins (FIG. 1a).

[2] = target: T2, mMincle-Ig (Mus musculus, UniProt Q9R0Q8); test: In vitro Mincle binding assay (ELISA) with mMincle-Ig fusion protein; parameters: species or system murine; conditions: plate-coated ligand 0.1 nmol/well
T2 construct: using soluble Mincle-Ig fusion-proteins; made in house
T2 sequence (Q9R0Q8 46-214 limits assumed): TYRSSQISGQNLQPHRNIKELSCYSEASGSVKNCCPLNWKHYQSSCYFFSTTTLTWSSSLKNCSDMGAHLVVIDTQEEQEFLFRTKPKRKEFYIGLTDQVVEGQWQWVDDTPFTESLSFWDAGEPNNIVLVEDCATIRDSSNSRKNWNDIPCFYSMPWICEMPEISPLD
Protocol: as §1, §2, §3

[3] = target: T3, mMincle+FcRγ (Mus musculus, UniProt Q9R0Q8); test: 2B4-NFAT-GFP reporter cells expressing mMincle+FcRγ; assay type: cell-based, murine; conditions: ligand-coated plates 0.01, 0.1 or 1 nmol/well, 18 hours
T3 construct: expressed in transfected cells; host or cells: 2B4-NFAT-GFP reporter cells
T3 sequence (Q9R0Q8 1-214): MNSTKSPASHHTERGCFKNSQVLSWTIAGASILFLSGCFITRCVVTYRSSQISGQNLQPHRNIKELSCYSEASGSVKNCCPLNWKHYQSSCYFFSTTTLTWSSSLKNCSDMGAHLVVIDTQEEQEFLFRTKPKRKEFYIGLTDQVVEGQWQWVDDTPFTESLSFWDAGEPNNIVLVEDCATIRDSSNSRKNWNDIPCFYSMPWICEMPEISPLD
T3 sequence (P20491 19-86 partner): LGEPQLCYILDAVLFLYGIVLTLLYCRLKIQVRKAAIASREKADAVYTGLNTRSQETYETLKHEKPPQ
Protocol: as §1
(§4) 2B4-NFAT-GFP reporter cells: 2B4-NFAT-GFP reporter cells expressing mMincle+FcRγ, hMincle+FcRγ, or FcRγ only have been previously described. […] The reporter cells were harvested, stained with propidium iodide, and analysed for NFAT-GFP expression using flow cytometry (FACS Calibur).
(§5) To determine whether the Mincle binding observed in Example 1 correlated with cellular activation, nuclear factor of activated T cells (NFAT)-green fluorescent protein (GFP) reporter cells expressing mMincle or hMincle coupled to FcRγ were stimulated using plates coated with TDM, TDB, brartemicin (9i), or analogues 9a-9h.
(§6) Activation of the reporter cells was measured through the production of GFP, which was monitored by flow cytometry (FIGS. 1b and 3c).
(§7) With the compounds 43a-h in hand, the ability of these analogues to bind and signal through Mincle was assessed (FIG. 5). Accordingly, NFAT-GFP reporter cells expressing mMincle+FcRγ, hMincle+FcRγ, or FcRγ-only were stimulated with the 2G-brartemicin analogues 43a-h, TDB, iPrOH, or the p-OC18H37 substituted analogue, 9f. Reporter cell activation was measured by the production of NFAT-GFP, which was analysed by flow cytometry.

[4] = target: T4, hMincle+FcRγ (Homo sapiens, UniProt Q9ULY5); test: 2B4-NFAT-GFP reporter cells expressing hMincle+FcRγ; assay type: cell-based; conditions: ligand-coated plates 0.01, 0.1 or 1 nmol/well, 18 hours
T4 construct: expressed in transfected cells; host or cells: 2B4-NFAT-GFP reporter cells
T4 sequence (Q9ULY5 1-219): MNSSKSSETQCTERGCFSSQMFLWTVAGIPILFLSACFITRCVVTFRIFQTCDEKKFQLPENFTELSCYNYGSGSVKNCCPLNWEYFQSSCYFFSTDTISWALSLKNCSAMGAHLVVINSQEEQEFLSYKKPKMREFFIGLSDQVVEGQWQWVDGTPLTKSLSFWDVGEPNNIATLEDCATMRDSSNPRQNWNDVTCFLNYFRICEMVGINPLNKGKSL
Protocol: as §1, §4, §5, §6, §7

[5] = test system: wild-type GM-CSF BMDMs; test: Cytokine/chemokine production by wild-type GM-CSF BMDMs on ligand-coated plates; assay type: cell-based, C57BL/6 mice; conditions: wild-type BMDMs, coated plates 0.1 or 1 nmol/well, 24 hours, ELISA
Protocol: as §1
Murine bone-marrow derived macrophages: For the preparation of murine bone-marrow derived macrophages, bone marrow cells were collected from the tibias and femurs of C57BL/6 mice and cultured (250,000 cells/mL) in complete RPMI media [RPMI-1640 (Gibco) with 10% heat inactivated fetal bovine serum (Gibco), 100 unit/mL penicillin-streptomycin (Gibco) and 2 mM Glutamax (Gibco)] supplemented with 50 ng/mL GM-CSF (clone X63/GM-CSF murine cells). Cells were incubated at 37° C. (5% CO2) for 8 days (cells fed by replacing half the media on days 3 and 6). On day 8, all media was removed and the cells were washed with Dulbecco's Phosphate-Buffered Saline (DPBS, Gibco) to remove any loosely-adherent cells. The BMDMs were harvested with StemPro Acutase (1 mL/well, 15 minutes at room temperature, Gibco) and seeded onto a pre-coated 96-well plate. The supernatant was collected and analysed for cytokine/chemokine production after 24 hours.
Cytokine analysis: IL-1β, IFN-γ, IL-6, TNF-α (BD Biosciences), IL-17, and MIP-2 (R&D) levels were determined via sandwich ELISA according to the manufacturer's instructions.
First, the ability of the compounds to activate GM-CSF BMDMs was determined by monitoring the secretion of the inflammatory cytokines TNF, IL-6, and IL-1β and the chemokine, MIP-2, in a ligand-coated plate assay (FIG. 2).
To gain insight into the capacity of the 2G-series of brartemicin analogues to induce an inflammatory immune response, the analogues were then screened for their ability to activate WT and Mincle^−/− BMDMs, with cellular activation being determined by the measurement of IL-1B using ELISA (FIG. 6).

[6] = test system: C57BL/6 mice; test: Delayed-type hypersensitivity immunisation with OVA in oil-in-water emulsion; assay type: in vivo
Protocol: Delayed-type hypersensitivity: Mice were sensitised by subcutaneous injection with oil-in-water emulsions (mineral oil/Tween-80/PBS, 9:1:90, v/v/v) containing OVA only (200 μg), OVA+TDB (OVA=200 μg, TDB=0.3 μmol), OVA+9a (OVA=200 μg, 9a=0.3 μmol) or no OVA. After seven days, the mice were challenged with OVA (100 μg/footpad) and after a further seven days, the mice were sacrificed and their spleens harvested. For in vitro restimulation, splenocytes were restimulated with OVA and analysed for spenocyte number (measured at 450 nm after 3 hours, Cell Count Reagent SF, Nacalai Tesque Inc.), IFN-γ production, and IL-17 production. Footpad swelling was measured using a venier caliper pre-challenge, 24 hours post-challenge, and 48 hours post-challenge. Sera were collected from each mouse on days 0, 7, and 14 and analysed for OVA-specific antibody titers by ELISA using HRP coupled goat anti-mouse IgG (GE Health-care), IgG1, IgG2b, IgG2c, and IgG3 (SouthernBiotec). EC50 were defined by plotting the absorbance at 450 nm against log of serum concentration. Antibody titration curves were plotted using GraphPad Prism7 (GraphPad Software).
Compound 9a was then evaluated in vivo to confirm its capacity to induce a Th1 antigen-specific response using a delayed-type hypersensitivity immunisation protocol. To this end, four groups of C57BL/6 mice were immunised by subcutaneous injection with oil-in-water emulsions containing either OVA only, OVA+C18dMeBrar (9a), OVA+TDB, or no OVA. After seven days the mice were challenged with OVA (100 μg per footpad) and after a further seven days, the splenocytes were isolated and restimulated with OVA at three concentrations (10, 30, or 100 μg/mL). The immune response was measured by determining footpad swelling, production of IFN-γ and IL-17 (FIG. 7b), T cell proliferation (FIG. 4a), and antibody titres (FIG. 4c). […] Accordingly, the ability of C18dMeBrar (9a) to lead to an enhanced Th1 immune response was even more striking. This overall immune profile was also reflected in the antibody production by immunised mice. […] A high IgG2c:IgG1 ratio is commonly associated with Th1 responses and a lower ratio is associated with Th2 responses. The production of IgG2c in mice immunised with C18dMeBrar increased three-fold as compared to OVA alone, providing evidence that C18dMeBrar induces a Th1-biased immune response.

Row | Compound | binding to hMincle-Ig (ELISA, OD at 450 nm) [1] | binding to mMincle-Ig (ELISA, OD at 450 nm) [2] | activation of mMincle NFAT-GFP reporter cells (GFP by flow cytometry) [3] | activation of hMincle NFAT-GFP reporter cells (GFP by flow cytometry) [4] | IL-1β production [5] | IL-6 production [5] | MIP-2 production [5] | TNF production [5] | Th1 immune response / adjuvant activity in vivo ([6]; s.c. OVA 200 μg + adjuvant 0.3 μmol, oil-in-water emulsion) | footpad swelling ([6]; s.c. OVA 200 μg + adjuvant 0.3 μmol, OVA challenge 100 μg/footpad) | IL-17 production by splenocytes restimulated with OVA ([6]; s.c. OVA 200 μg + adjuvant 0.3 μmol, restimulation 10, 30 or 100 μg/mL OVA) | antigen specific IFN-γ production, all concentrations of OVA ([6]; s.c. OVA 200 μg + adjuvant 0.3 μmol, splenocytes restimulated with 10, 30 or 100 μg/mL OVA) | IgG1 antibody production ([6]; serum, ELISA) | IgG2b antibody production ([6]; serum, ELISA) | IgG2c antibody production ([6]; serum, ELISA) | production of OVA-specific IgG antibodies ([6]; serum, ELISA)
1 | CCCCCCCOc1ccc(C(=O)OCC2O[C@H](O[C@H]3OC(COC(=O)c4ccc(OCCCCCCC)cc4O)[C@@H](O)C(O)C3O)C(O)C(O)[C@@H]2O)c(O)c1 (stereo partly drawn) [9b, 6,6′-Di-O-(4-heptyloxy-2-hydroxybenzoyl)-α,α′-D-trehalose] | good binding | good binding | activated mMincle and hMincle NFATGFP reporter cells but to a lesser extent than the C18 analogues | activated mMincle and hMincle NFATGFP reporter cells but to a lesser extent than the C18 analogues | modest production | modest production | modest production | modest production | – | – | – | – | – | – | – | –
2 | COc1ccc(C(=O)OCC2O[C@H](O[C@H]3OC(COC(=O)c4ccc(OC)cc4O)[C@@H](O)C(O)C3O)C(O)C(O)[C@@H]2O)c(O)c1 (stereo partly drawn) [9d, 6,6′-Di-O-(2-hydroxy-4-methoxybenzoyl)-α,α′-D-trehalose] | did not bind hMincle- or mMincle-Ig to any great extent | did not bind hMincle- or mMincle-Ig to any great extent | – | only modest activation of hMincle at a high ligand concentration | did not induce the production of any of the cytokines measured | did not induce the production of any of the cytokines measured | did not induce the production of any of the cytokines measured | did not induce the production of any of the cytokines measured | – | – | – | – | – | – | – | –
3 | O=C(OCC1O[C@H](O[C@H]2OC(COC(=O)c3ccc(O)cc3O)[C@@H](O)C(O)C2O)C(O)C(O)[C@@H]1O)c1ccc(O)cc1O (stereo partly drawn) [9e, 6,6′-Di-O-(2,4-dihydroxybenzoyl)-α,α′-D-trehalose] | did not bind hMincle- or mMincle-Ig to any great extent | did not bind hMincle- or mMincle-Ig to any great extent | did not significantly activate mMincle | – | did not induce the production of any of the cytokines measured | did not induce the production of any of the cytokines measured | did not induce the production of any of the cytokines measured | did not induce the production of any of the cytokines measured | – | – | – | – | – | – | – | –
4 | CCCCCCCCCCCCCCCCCCCCCC(=O)OC[C@H]1O[C@H](O[C@H]2O[C@H](COC(=O)CCCCCCCCCCCCCCCCCCCCC)[C@@H](O)[C@H](O)[C@H]2O)[C@H](O)[C@@H](O)[C@@H]1O [TDB, trehalose dibehenate, reference compound] | – | – | – | – | significant production | significant production | significant production | significant production | limited efficacy | neither 9a nor TDB induced any | neither 9a nor TDB induced any | did not lead to a significant increase | showed increases | showed increases | showed increases | elevated the production of IgG antibodies
5 | trehalose dimycolate [TDM, reference compound] | – | – | – | – | significant production | significant production | significant production | significant production | – | – | – | – | – | – | – | –
